Measurements reported in US8101774B2, “Ester derivatives and medicinal use thereof” (Japan Tobacco Inc., priority 2004, dated 2012).

Molecular target: T1, Microsomal triglyceride transfer protein (MTP) from human small intestine microsome (Homo sapiens, UniProt P55157)
T1 construct: Human small intestine microsome was dialyzed against 10 mM phosphate buffer; tissue Tissue Transforming Technologies, Inc; host or cells: human small intestine microsome
Assay: Inhibition test of interliposomal triglyceride (TG) transfer activity by MTP
Format: biochemical
Conditions: purified MTP from human small intestine microsome, 37° C., 1.5 hours
Procedure: Microsomal triglyceride transfer protein (MTP) from human small intestine microsome (manufactured by Tissue Transforming Technologies, Inc.) was purified in such a way described below. Human small intestine microsome was dialyzed against 10 mM phosphate buffer (300 mL, pH 6.8) twice for about 2 hours and once for further not less than 12 hours, at about 4° C. After dialysis, the mixture was centrifuged at 4° C. and 15,000×g for 5 minutes and then the supernatant was recovered. The previously recovered supernatant was purified by column chromatography on diethylaminoethyl (DEAE) Sepharose using FPLC (Fast Performance Liquid Chromatography) system, and the purified MTP was used for the test as described below.
Small unilamellar-vesicle (SUV) liposome (hereinafter described as donor, containing 0.25% (mol/mol) triolein and 5% (mol/mol) cardiolipin) constituted by triolein labeled with ^14C and non-labeled SUV liposome (hereinafter described as acceptor, containing […] triolein) were prepared in such a way described below.
Firstly, in order to prepare the donor, there were volatilized under a stream of nitrogen gas a phosphatidylcholine solution containing phosphatidylcholine labeled with ^3H, a cardiolipin solution, and a triolein solution containing triolein labeled with ^14C (each solution had been already dissolved in an appropriate organic solvent), or in order to prepare the acceptor, there were volatilized under nitrogen flow a phosphatidylcholine solution containing phosphatidylcholine labeled with ^3H and a cardiolipin solution (each solution had been already dissolved in an appropriate organic solvent). An appropriate amount of a reaction buffer (15 mM Tris-HCl buffer containing 1 mM EDTA.Na2, 40 mM NaCl, and 0.5% (w/v) bovine serum albumin, pH 7.4) was added thereto to be emulsified. The emulsions were treated with ultrasonication under ice-cooling and centrifuged at 4° C. and 159,000×g for 2 hours. Each of the resulting supernatant was used for donor or acceptor.
Each radioactivity in the acceptor and the donor was measured by liquid scintillation counter, and a mixed solution of the acceptor and the donor was prepared with a reaction buffer so as to be a donor-derived radioactivity of 16,000 dpm/400 μL and a acceptor-derived radioactivity of 4,000 dpm/[…]. 400 μL of the mixed solution of the donor and the acceptor, 45 μL of the reaction buffer, 50 μL of MTP (20 μg/mL), and 5 μL of a sample dissolved in DMSO (dimethyl sulfoxide) or 5 μL of DMSO was mixed (total amount: 500 μL). The mixture was incubated at 37° C. for 1.5 hours. After completion of the incubation, 1.25 mL of a suspension of DEAE cellulose (66.7% (v/v)) in 15 mM Tris-HCl buffer (pH 7.4) containing 1 mM EDTA.Na2 was added to the above solution. The mixture was centrifuged to separate the donor (adsorbed on the DEAE cellulose to precipitate) and the acceptor (the supernatant). The radioactivity in the acceptor was measured by liquid scintillation counter. The value obtained by subtracting the radioactivity in a blank group from the radioactivity in the acceptor of a DMSO group was determined as MTP-mediated TG transfer activity, and it was compared with the value obtained by subtracting the radioactivity in the blank group from the radioactivity in a sample group. Here, the blank was prepared by adding 10 mM phosphate buffer (pH 6.8) containing 250 mM NaCl in place of MTP. Inhibition rate (%) was calculated from values obtained according to the following equation. Inhibition rate(%)=(1 minus((radioactivity of sample group minus radioactivity of blank group)/(radioactivity of DMSO group minus radioactivity of blank group)))×100.
50% Inhibition rate (IC50) was determined on the basis of the above equation.

T1 sequence (P55157 19-894): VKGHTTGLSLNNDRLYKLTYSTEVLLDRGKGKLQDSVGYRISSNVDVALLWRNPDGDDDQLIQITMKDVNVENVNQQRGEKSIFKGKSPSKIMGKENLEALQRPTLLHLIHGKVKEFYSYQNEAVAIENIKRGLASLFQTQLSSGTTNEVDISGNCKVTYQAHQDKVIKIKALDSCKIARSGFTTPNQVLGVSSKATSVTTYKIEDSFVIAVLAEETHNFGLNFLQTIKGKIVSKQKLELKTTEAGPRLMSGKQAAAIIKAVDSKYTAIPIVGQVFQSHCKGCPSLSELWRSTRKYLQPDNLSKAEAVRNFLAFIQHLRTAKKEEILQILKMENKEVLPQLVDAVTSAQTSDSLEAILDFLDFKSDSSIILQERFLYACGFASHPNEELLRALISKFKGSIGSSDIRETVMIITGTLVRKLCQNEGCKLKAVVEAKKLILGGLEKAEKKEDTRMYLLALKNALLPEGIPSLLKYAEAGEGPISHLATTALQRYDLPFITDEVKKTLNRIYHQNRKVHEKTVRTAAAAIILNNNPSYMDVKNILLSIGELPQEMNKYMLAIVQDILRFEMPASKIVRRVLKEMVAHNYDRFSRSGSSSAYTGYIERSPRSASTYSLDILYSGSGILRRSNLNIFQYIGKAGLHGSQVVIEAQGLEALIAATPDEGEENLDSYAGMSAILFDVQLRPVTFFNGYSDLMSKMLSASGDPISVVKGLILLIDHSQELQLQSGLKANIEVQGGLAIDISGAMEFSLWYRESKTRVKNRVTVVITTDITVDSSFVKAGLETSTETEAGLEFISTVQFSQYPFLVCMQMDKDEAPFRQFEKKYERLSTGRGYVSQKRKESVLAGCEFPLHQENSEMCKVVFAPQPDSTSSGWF
T1 sequence (P07237 18-508 partner): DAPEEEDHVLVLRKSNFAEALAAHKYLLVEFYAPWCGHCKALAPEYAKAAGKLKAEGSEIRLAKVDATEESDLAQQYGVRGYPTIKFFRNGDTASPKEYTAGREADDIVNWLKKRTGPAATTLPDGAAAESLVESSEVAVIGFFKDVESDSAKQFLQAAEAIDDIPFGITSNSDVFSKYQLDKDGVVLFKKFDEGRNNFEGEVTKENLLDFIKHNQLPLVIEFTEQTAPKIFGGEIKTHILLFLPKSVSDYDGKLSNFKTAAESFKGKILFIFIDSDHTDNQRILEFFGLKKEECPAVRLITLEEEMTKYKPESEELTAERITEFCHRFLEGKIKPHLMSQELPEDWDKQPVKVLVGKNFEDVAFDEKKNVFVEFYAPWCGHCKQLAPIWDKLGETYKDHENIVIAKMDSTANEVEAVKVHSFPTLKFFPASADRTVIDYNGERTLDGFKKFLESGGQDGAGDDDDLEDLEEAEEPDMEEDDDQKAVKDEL

Compound | IC50 [nM]
CCOC(=O)c1ccc(OC(=O)CCCc2ccc(NC(=O)c3ccc(C)nc3-c3ccc(C(F)(F)F)cc3)c(C(=O)N(C)C)c2)cc1 [Compound 1-71, 4-[4-(3-dimethylcarbamoyl-4-{[6-methyl-2-(4-trifluoromethylphenyl)pyridine-3-carbonyl]amino}phenyl)butyryloxy]benzoic acid ethyl ester] | < 10
COc1cc(C(=O)OCCNC(C)=O)cc(Cl)c1OC(=O)CCCc1ccc(NC(=O)c2ccc(C)nc2-c2ccc(C(F)(F)F)cc2)c(C(=O)N(C)C)c1 [Compound 1-114, 3-chloro-4-[4-(3-dimethylcarbamoyl-4-{[6-methyl-2-(4-trifluoromethylphenyl)pyridine-3-carbonyl]amino}phenyl)butyryloxy]-5-methoxybenzoic acid 2-acetylaminoethyl ester] | < 10
CCOC(=O)c1ccc(OC(=O)CCCc2ccc(NC(=O)c3ccccc3-c3ccc(C(F)(F)F)cc3)c(C(=O)N(C)C)c2)cc1 [Compound 1-6, 4-(4-{3-dimethylcarbamoyl-4-[(4′-trifluoromethylbiphenyl-2-carbonyl)amino]phenyl}butyryloxy)benzoic acid ethyl ester] | < 10
COC(=O)c1cc(C)c(OC(=O)CCCc2ccc(NC(=O)c3ccc(C)nc3-c3ccc(C(F)(F)F)cc3)c(C(=O)N(C)C)c2)c(C)c1 [Compound 1-65, 4-[4-(3-dimethylcarbamoyl-4-{[6-methyl-2-(4-trifluoromethylphenyl)pyridine-3-carbonyl]amino}phenyl)butyryloxy]-3,5-dimethylbenzoic acid methyl ester] | < 10
Cc1ccc(C(=O)Nc2ccc(CCCC(=O)Oc3ccc(C(=O)OCc4cccnc4)cc3)cc2C(=O)N(C)C)c(-c2ccc(C(F)(F)F)cc2)n1 [Compound 1-94, 4-[4-(3-dimethylcarbamoyl-4-{[6-methyl-2-(4-trifluoromethylphenyl)pyridine-3-carbonyl]amino}phenyl)butyryloxy]benzoic acid pyridin-3-ylmethyl ester] | < 10
COC(=O)c1ccc(OC(=O)CCCc2ccc(NC(=O)c3ccccc3-c3ccc(C(F)(F)F)cc3)c(C(=O)N(C)C)c2)c(C(C)C)c1 [Compound 1-68, 4-[4-(3-dimethylcarbamoyl-4-{(4′-trifluoromethylbiphenyl-2-carbonyl)amino}phenyl)butyryloxy]-3-isopropylbenzoic acid methyl ester] | < 10
COC(=O)c1cc(Br)c(OC(=O)CCCc2ccc(NC(=O)c3ccc(C)nc3-c3ccc(C(F)(F)F)cc3)c(C(=O)N(C)C)c2)c(OC)c1 [Compound 1-50, 3-bromo-4-[4-(3-dimethylcarbamoyl-4-{[6-methyl-2-(4-trifluoromethylphenyl)pyridine-3-carbonyl]amino}phenyl)butyryloxy]-5-methoxybenzoic acid methyl ester] | < 10
CC(C)n1nnc(-c2ccc(OC(=O)CCCc3ccc(NC(=O)c4ccccc4-c4ccc(C(F)(F)F)cc4)c(C(=O)N(C)C)c3)cc2)n1 [Compound 1-115, 4-(3-dimethylcarbamoyl-4-{(4′-trifluoromethylbiphenyl-2-carbonyl)amino}phenyl)butyric acid 4-(2-isopropyl-2H-tetrazol-5-yl)phenyl ester] | < 10
COC(=O)c1cc(Cl)c(OC(=O)CCCc2ccc(NC(=O)c3ccc(C)nc3-c3ccc(C(F)(F)F)cc3)c(C(=O)N(C)C)c2)c(C(C)C)c1 [Compound 1-74, 3-chloro-4-[4-(3-dimethylcarbamoyl-4-{[6-methyl-2-(4-trifluoromethylphenyl)pyridine-3-carbonyl]amino}phenyl)butyryloxy]-5-isopropylbenzoic acid methyl ester] | < 10
COc1ccc(COC(=O)c2ccc(OC(=O)CCCc3ccc(NC(=O)c4ccccc4-c4ccc(C(F)(F)F)cc4)c(C(=O)N(C)C)c3)cc2)cc1 [Compound 1-96, 4-[4-(3-dimethylcarbamoyl-4-{(4′-trifluoromethylbiphenyl-2-carbonyl)amino}phenyl)butyryloxy]benzoic acid 4-methoxybenzyl ester] | < 10
CC(=O)c1ccc(OC(=O)CCCc2ccc(NC(=O)c3ccccc3-c3ccc(C(F)(F)F)cc3)c(C(=O)N(C)C)c2)cc1 [Compound 1-22, 4-{3-dimethylcarbamoyl-4-[(4′-trifluoromethylbiphenyl-2-carbonyl)amino]phenyl}butyric acid 4-acetylphenyl ester] | 10 to 100
COC(=O)c1cc(C)c(OC(=O)CCCc2ccc(NC(=O)c3ccc(C)nc3-c3ccc(C(F)(F)F)cc3)c(C(=O)N(C)C)c2)c(Cl)c1 [Compound 1-35, 3-chloro-4-[4-(3-dimethylcarbamoyl-4-{[6-methyl-2-(4-trifluoromethylphenyl)pyridine-3-carbonyl]amino}phenyl)butyryloxy]-5-methylbenzoic acid methyl ester] | < 10
CN(C)C(=O)c1cc(CCC(=O)Oc2ccccc2)ccc1NC(=O)c1ccccc1-c1ccc(C(F)(F)F)cc1 [Compound 1-1, 3-{3-dimethylcarbamoyl-4-[(4′-trifluoromethylbiphenyl-2-carbonyl)amino]phenyl}propionic acid phenyl ester] | 10 to 100
CC(C)OC(=O)c1ccc(OC(=O)CCCc2ccc(NC(=O)c3ccncc3-c3ccc(C(F)(F)F)cc3)c(C(=O)N(C)C)c2)cc1 [Compound 1-29, 4-[4-(3-dimethylcarbamoyl-4-{[3-(4-trifluoromethylphenyl)pyridine-4-carbonyl]amino}phenyl)butyryloxy]benzoic acid isopropyl ester] | < 10
CN(C)C(=O)c1cc(CCCC(=O)Oc2ccc(C(=O)OCc3ccncc3)cc2)ccc1NC(=O)c1ccccc1-c1ccc(C(F)(F)F)cc1 [Compound 1-84, 4-[4-(3-dimethylcarbamoyl-4-{(4′-trifluoremethylbiphenyl-2-carbonyl)amino}phenyl)butyryloxy]benzoic acid pyridin-4-ylmethyl ester] | < 10
COC(=O)c1ccc(OC(=O)CCCc2ccc(NC(=O)c3ccccc3-c3ccc(C(F)(F)F)cc3)c(C(=O)N(C)C)c2)cc1C(F)(F)F [Compound 1-21, 4-(4-{3-dimethylcarbamoyl-4-[(4′-trifluoromethylbiphenyl-2-carbonyl)amino]phenyl}butyryloxy)-2-trifluoromethylbenzoic acid methyl ester] | 10 to 100
COC(=O)c1ccc(-c2nc(C)ccc2C(=O)Nc2ccc(CCCC(=O)Oc3c(Cl)cc(C(=O)OC)cc3OC)cc2C(=O)N(C)C)cc1 [Compound 4-4, 3-chloro-4-[4-(3-dimethylcarbamoyl-4-{[2-(4-methoxycarbonylphenyl)-6-methylpyridine-3-carbonyl]amino}phenyl)butyryloxy]-5-methoxybenzoic acid methyl ester] | < 10
COC(=O)c1ccc(OC(=O)CCCc2ccc(NC(=O)c3ccc(C)nc3-c3ccc(C(F)(F)F)cc3)c(C(=O)N(C)C)c2)cc1 [Compound 1-13, 4-[4-(3-dimethylcarbamoyl-4-{[6-methyl-2-(4-trifluoromethylphenyl)pyridine-3-carbonyl]amino}phenyl)butyryloxy)benzoic acid methyl ester] | < 10
Cc1cccc(COC(=O)c2ccc(OC(=O)CCCc3ccc(NC(=O)c4ccccc4-c4ccc(C(F)(F)F)cc4)c(C(=O)N(C)C)c3)cc2)n1 [Compound 1-101, 4-[4-(3-dimethylcarbamoyl-4-{(4′-trifluoromethylbiphenyl-2-carbonyl)amino}phenyl)butyryloxy]benzoic acid 6-methylpyridin-2-ylmethyl ester] | < 10
COC(=O)c1ccc(OC(=O)CCCc2ccc(NC(=O)c3ccccc3-c3ccc(C(F)(F)F)cc3)c(C(=O)N(C)C)c2)cc1C [Compound 1-14, 4-(4-{3-dimethylcarbamoyl-4-[(4′-trifluoromethylbiphenyl-2-carbonyl)amino]phenyl}butyryloxy)-2-methyl benzoic acid methyl ester] | < 10
